In US9908863B2, “Piperidinylcarbazoles” (Merck Patent GmbH, priority 2013, dated 2018) one finds IC50 data, which are given here for 28 compounds.

One may read the IC50 as the point on the concentration scale where inhibition reaches its midpoint.

One experiment concerns Chloroquine/Pyrimethamine resistant Plasmodium falciparum K1. Briefly: In vitro sensitivity assay: Plasmodium falciparum by 3H-hypoxanthine incorporation. The experiment is classed as cell-based. Particulars: Erythrocyte, P. falciparum K1 strain in human red blood cells, 3H-hypoxanthine incorporation, read-out: IC50 K1 in vitro. The method, then: Biological Test 1: In Vitro Sensitivity Assays: Plasmodium falciparum by ^3H-Hypoxanthine Incorporation.
The strain used for this assay is the Chloroquine/Pyrimethamine resistant Plasmodium falciparum K1 and drugs such as Chloroquine (10 mg/mL stock; start concentration 1000 ng/mL) and Artemisinine (Qinghaosu) (5 mg/mL stock; start concentration 10 ng/mL) were used as standards. Human red blood cells were used as host cells and the activity was measured using a ^3H-hypoxanthine incorporation assay.
Into a Costar™ 96-well microtitre plates, 100 μL of medium (RPMI 1640 without hypoxanthine 10.44 g/L, HEPES 5.94 g/L, Albumax® 5 g/L, Neomycin 10 mL/L, NaHCO3 2.1 g/L) were added to the wells of row containing drugs available from stock solutions of 10 mg/mL in DMSO (compounds were kept at −20° C. Since DMSO is toxic, care had to be taken not to exceed a final concentration of 0.5% DMSO). Then 100 μL of medium were added at rt to all wells of the plate. By means of a 12-well multi-pipette serial drug dilutions were prepared. A serial dilution factor of 1:2 is thus obtained. One row of wells without drugs served as controls. Next 100 μL of medium+washed human red blood cells A+(RBC) was added to the last 4 wells of the first row; these columns serve as background controls (that may be caused by 3H-hypoxanthine incorporation into RBC without the parasite). Into the remaining wells, 100 μL of medium+RBC+P. falciparum mix was added. The plates were placed for 48 h into a chamber at 37° C. gassed with a 4% CO2, 3% O2, 93% N2 mix. Finally 50 μL of medium+3H-hypoxanthine [(500 μL ^3H-hypoxanthine stock+500 μL EtOH+49 mL medium (0.5 μCi)] was added to each well and the plates were put back at 37° C. for 24 h into the chamber and gassed with a 4% CO2, 3% O2, 93% N2 mix. The plates were then read using the Cell Harvester and the data were transferred into a graphic program (Excel) and are evaluated to determine the IC50 by linear interpolation.
Take `CC(C)(C)OC(=O)N1CC[C@H](n2c3ccc(F)cc3c3cc(Cl)ccc32)[C@@H](O)C1` (racemic) [Compound 1, trans-4-(3-Chloro-6-fluoro-carbazol-9-yl)-3-hydroxy-piperidine-1-carboxylic acid tert-butyl ester]: the IC50 came to 315 nM.
For the compound `CC(C)(C)OC(=O)N1CC[C@@H](O)[C@H](n2c3ccc(F)cc3c3cc(Cl)ccc32)C1` (racemic) [Compound 2, trans-3-(3-Chloro-6-fluoro-carbazol-9-yl)-4-hydroxy-piperidine-1-carboxylic acid tert-butyl ester], the IC50 is 127 nM.

Another experiment deals with P. falciparum strain NF54. Briefly: P. falciparum growth assay ([3H] hypoxanthine incorporation). The experiment is classed as cell-based. The settings on record: Plasmodium falciparum; P. falciparum NF54 strain, 72 h incubation, [3H]hypoxanthine incorporation; read-out: IC50 NF54. On the procedure: • Cultivation of P. falciparum:
P. falciparum strain NF54 was obtained from the Research and Reference Reagent
Resource Center (MR4) (Manassas, Va.). The two strains were maintained in vitro by a modification of the method of Trager and Jensen. Cultures were maintained in A positive (A+) human erythrocytes suspended at 5% hematocrit in complete medium. 5 g albumax II (Gibco-Invitrogen, Cat No#11021037), 2.5 mg gentamicin (Sigma Aldrich), 25 mM HEPES (Invitrogen), 5 mg hypoxanthine (Sigma), and 1 L of RPMI 1640 (Invitrogen, Cat No#11875085). Cultures were grown in 100 mm petri-dishes (BD Falcon) at a volume of 15 mL and were kept in a standard gas environment of 4% CO2 and 3% 02 at temperature 37° C. in a tri-gas incubator (Cat#3131, Thermo Scientific Forma Series II Water Jacketed). Parasite growth and morphology were observed daily using thin smears at 100× (oil immersion) magnification following staining with Geimsa stain. • P. falciparum growth assay:
The protocol assesses the compound efficacy against the growth of P. falciparum in-vitro.
Parasite growth was detected in assay by the traditional [3H] hypoxanthine incorporation assay as previously described by Desjardins and colleagues (Antimicrob. Agents Chemother., 16(6), 710, 1979). To perform the [3H] hypoxanthine incorporation assay, the new antimalarial agents were serially diluted 1:1 into hypoxanthine-free complete medium to a final volume of 100 μL (final antimalarial agent concentration range, 10,000 nM to 4.8 nM may change in special case) in 96 well sterile cell culture plates. […] All cultures used in the study are albumax II adopted. The microtiter plates were incubated in chamber in a standard gas environment at 37° C. for 72 h. After 48 h of incubation and prior to addition of 50 μL (0.5 μCi/well) 3H-Hypoxanthine (specific activity, 20 Ci/mmol, Conc. 1.0 mCi/ml; American Radiolabeled Chemicals, Inc., St. Louis, Mo.), culture growth was assessed by making the smears that ensures the culture has grown in % p and assay plate is further incubated for 24 h. Following the incubation period, the plates were harvested with a FilterMate cell harvester (Perkin Elmer) onto unifilter-96 GF/B plates, washed with distilled water to remove excess radiochemical and plates were kept for drying 37° C. overnight or 60° C. for 1 h. 50 μL of Microscint scintillation cocktail (Microscint-High Efficiency LSC-Cocktail; Perkin Elmer) added in the unifilter-96 GF/B plates and kept for 15-20 min. The plates were counted in a Top Count NXT microplate scintillation and luminescence counter (Perkin Elmer). The mean values for [3H]hypoxanthine incorporation in parasitized control and non-parasitized control erythrocytes were calculated.
Assay data were analyzed using Graph pad prism ver.5 software. A variable sigmoid dose response curve is plotted keeping log concentrations at X-axis and % inhibition at Y-axis.
In the case of `CC(C)(C)OC(=O)N1CC[C@@H](O)[C@H](n2c3ccc(F)cc3c3cc(F)ccc32)C1` (racemic) [Compound 44, trans-tert-butyl 3-(3,6-difluoro-9H-carbazol-9-yl)-4-hydroxypiperidine-1-carboxylate], the IC50 was 792 nM.
As to `CC(C)(C)OC(=O)N1CC[C@@H](n2c3ccc(F)cc3c3cc(F)ccc32)[C@H](O)C1` (racemic) [Compound 46, trans-tert-butyl 4-(3,6-difluoro-9H-carbazol-9-yl)-3-hydroxypiperidine-1-carboxylate], the half-maximal inhibitory concentration (IC50) was determined as 1330 nM.
Take `O[C@@H]1CCNC[C@H]1n1c2ccc(C(F)(F)F)cc2c2cc(C(F)(F)F)ccc21` (racemic) [Compound 59, trans-3-(3,6-bis(trifluoromethyl)-9H-carbazol-9-yl)piperidin-4-ol]: the IC50 stood at 1300 nM.
For the compound `O[C@@H]1CNCC[C@H]1n1c2ccc(F)cc2c2cc(F)ccc21` (racemic) [Compound 62], the concentration for half-maximal inhibition (IC50) came out at 263 nM.
Same read-out and setting: the same measure for `O[C@@H]1CNCC[C@H]1n1c2ccc(C(F)(F)F)cc2c2cc(C(F)(F)F)ccc21` (racemic) [Compound 68, trans-4-(3,6-bis(trifluoromethyl)-9H-carbazol-9-yl)piperidin-3-ol]: 22.2 nM; for `O[C@@H]1CN(Cc2ccccc2)CC[C@H]1n1c2ccc(F)cc2c2cc(F)ccc21` (relative stereo) [Compound 41, trans-1-benzyl-4-(3,6-difluoro-9H-carbazol-9-yl)piperidin-3-ol]: 280 nM.
Take `O[C@@H]1CCN(Cc2ccccc2)C[C@H]1n1c2ccc(F)cc2c2cc(F)ccc21` (relative stereo) [Compound 63, trans-1-benzyl-3-(3,6-difluoro-9H-carbazol-9-yl)piperidin-4-ol]: the IC50 was determined as 233 nM.
Consider `O[C@H]1CNCC[C@@H]1n1c2ccc(Cl)cc2c2cc(Cl)cnc21` (single isomer, unassigned) [Compound 19], for which the IC50 was found to be 93.3 nM.
Still for that read-out and setting: the same measure for `O[C@@H]1CNCC[C@H]1n1c2ccc(Cl)cc2c2cc(Cl)cnc21` (single isomer, unassigned) [Compound 20]: 124 nM; for `O[C@@H]1CCN(Cc2ccccc2)C[C@H]1n1c2ccc(F)cc2c2cc(F)ccc21` (single isomer, unassigned) [Compound 42]: 79.8 nM; for `O[C@H]1CCN(Cc2ccccc2)C[C@@H]1n1c2ccc(F)cc2c2cc(F)ccc21` (single isomer, unassigned) [Compound 43]: 910 nM.
`CC(C)(C)OC(=O)N1CC[C@@H](O)[C@H](n2c3ccc(F)cc3c3cc(F)ccc32)C1` (single isomer, unassigned) [Compound 47]: the concentration for half-maximal inhibition (IC50) turned out to be 576 nM.
`CC(C)(C)OC(=O)N1CC[C@H](O)[C@@H](n2c3ccc(F)cc3c3cc(F)ccc32)C1` (single isomer, unassigned) [Compound 48]: the IC50 came out at 1260 nM.
Still for that read-out and setting: in the case of `O[C@@H]1CCNC[C@H]1n1c2ccc(Cl)cc2c2cc(Cl)cnc21` (single isomer, unassigned) [Compound 55] it was 3600 nM; in that of `O[C@@H]1CCNC[C@H]1n1c2ccc(Cl)cc2c2cc(Cl)ccc21` (single isomer, unassigned) [Compound 66], 1690 nM; in that of `O[C@@H]1CCN(CCC(F)(F)F)C[C@H]1n1c2ccc(F)cc2c2cc(F)ccc21` [Compound 45, (3R,4R)-3-(3,6-difluoro-9H-carbazol-9-yl)-1-(3,3,3-trifluoropropyl)piperidin-4-ol], 96 nM.
In the case of `O[C@@H]1CCN(CCCC(F)(F)F)C[C@H]1n1c2ccc(F)cc2c2cc(F)ccc21` [Compound 49, (3R,4R)-3-(3,6-difluoro-9H-carbazol-9-yl)-1-(4,4,4-trifluorobutyl)piperidin-4-ol], the IC50 stood at 33.6 nM.
Take `O[C@@H]1CCN(CC2CC2)C[C@H]1n1c2ccc(F)cc2c2cc(F)ccc21` [Compound 50, (3R,4R)-1-(cyclopropylmethyl)-3-(3,6-difluoro-9H-carbazol-9-yl)piperidin-4-ol]: the IC50 worked out at 290 nM.
Same read-out and setting: the same measure for `CC(C)(C)CN1CC[C@@H](O)[C@H](n2c3ccc(F)cc3c3cc(F)ccc32)C1` [Compound 51, (3R,4R)-3-(3,6-difluoro-9H-carbazol-9-yl)-1-neopentylpiperidin-4-ol]: 555 nM.
On the same count and under the same terms, in the case of `O[C@@H]1CCN(CCc2ccccc2)C[C@H]1n1c2ccc(F)cc2c2cc(F)ccc21` [Compound 52, (3R,4R)-3-(3,6-difluoro-9H-carbazol-9-yl)-1-phenethylpiperidin-4-ol] it was 169 nM; in that of `O[C@@H]1CCN(CC2(C(F)(F)F)CC2)C[C@H]1n1c2ccc(F)cc2c2cc(F)ccc21` [Compound 53, (3R,4R)-3-(3,6-difluoro-9H-carbazol-9-yl)-1-((1-(trifluoromethyl)cyclopropyl)methyl)piperidin-4-ol], 73.6 nM.
For the compound `O[C@@H]1CCN(CCC(F)(F)F)C[C@H]1n1c2ccc(Cl)cc2c2cc(Cl)ccc21` [Compound 54, (3R,4R)-3-(3,6-dichloro-9H-carbazol-9-yl)-1-(3,3,3-trifluoropropyl)piperidin-4-ol], the half-maximal inhibitory concentration (IC50) was 28.2 nM.
With `O[C@@H]1CCN(CCC(F)(F)F)C[C@H]1n1c2ccc(Cl)cc2c2cc(Cl)cnc21` [Compound 57, (3R,4R)-3-(3,6-dichloro-9H-pyrido[2,3-b]-indol-9-yl)-1-(3,3,3-trifluoropropyl)piperidin-4-ol], the IC50 was 2240 nM.
For the compound `O[C@@H]1CN(CCC(F)(F)F)CC[C@H]1n1c2ccc(Cl)cc2c2cc(Cl)cnc21` [Compound 58, (3R,4R)-4-(3,6-dichloro-9H-pyrido[2,3-b]indol-9-yl)-1-(3,3,3-trifluoropropyl)piperidin-3-ol], the half-maximal inhibitory concentration (IC50) was determined as 724 nM.
In the case of `O[C@@H]1CNCC[C@H]1n1c2ccc(C(F)(F)F)cc2c2cc(C(F)(F)F)ccc21` [Compound 60, (3R,4R)-4-(3,6-bis(trifluoromethyl)-9H-carbazol-9-yl)piperidin-3-ol], the IC50 was 20.5 nM.
`O[C@H]1CNCC[C@@H]1n1c2ccc(C(F)(F)F)cc2c2cc(C(F)(F)F)ccc21` [Compound 61, (3S,4S)-4-(3,6-bis(trifluoromethyl)-9H-carbazol-9-yl)piperidin-3-ol]: the IC50 was 20.5 nM.
